How the values were obtained:
human VR1 = biological target: T1, human VR1 (Homo sapiens, UniProt Q8NER1); experiment: Capsaicin-induced Ca2+ influx in the human VR1-transfected CHO cell line (Assay 1); format: cell-based; conditions: human VR1-CHOluc9aeq cells, stimulation with 10 nM capsaicin, Fluo-3 AM / FDSS-3000; compounds of purity about 40 to 90%; read-out: Activity Class (IC50 of capsaicin-induced Ca2+ influx)
T1 construct: expressed in transfected cells
Source text: [Measurement of Capsaicin-Induced Ca^2+ Influx in the Human VR1-Transfected CHO Cell Line] (Assay 1)
(1) Establishment of the Human VR1-CHOluc9aeq Cell Line
Human vanilloid receptor (hVR1) cDNA was cloned from libraries of axotomized dorsal root ganglia (WO 00/29577). The cloned hVR1 cDNA was constructed with pcDNA3 vector and transfected into a CHOluc9aeq cell line. The cell line contains aequorin and CRE-luciferase reporter genes as read-out signals. The transfectants were cloned by limiting dilution in selection medium (DMEM/F12 medium (Gibco BRL) supplemented with 10% FCS, 1.4 mM Sodium pyruvate, 20 mM HEPES, 0.15% Sodium bicarbonate, 100 U/ml penicillin, 100 μg/ml streptomycin, 2 mM glutamine, non-essential amino acids and 2 mg/ml G418). Ca^2+ influx was examined in the capsaicin-stimulated clones. A high responder clone was selected and used for further experiments in the project. The human VR1-CHOluc9aeq cells were maintained in the selection medium and passaged every 3-4 days at 1−2.5×10^5 cells/flask ([…]).
(2) Measurement of Ca^2+ influx using FDSS-3000
Human VR1-CHOluc9aeq cells were suspended in a culture medium which is the same as the selection medium except for G418 and seeded at a density of 1,000 cells per well into 384-well plates (black walled clear-base/Nalge Nunc International). Following the culture for 48 hrs the medium was changed to 2 μM Fluo-3 AM (Molecular Probes) and 0.02% Puronic F-127 in assay buffer (Hank's balanced salt solution (HBSS), 17 mM HEPES (pH7.4), 1 mM Probenecid, 0.1% BSA) and the cells were incubated for 60 min at 25° C. After washing twice with assay buffer the cells were incubated with a test compound or vehicle for 20 min at 25° C. Mobilization of cytoplasmic Ca^2+ was measured by FDSS-3000 (λex=488 nm, λem=540 nm/Hamamatsu Photonics) for 60 sec after the stimulation with 10 nM capsaicin. Integral R was calculated and compared with controls.
The data corresponds to the compounds as yielded by solid phase synthesis and thus to levels of purity of about 40 to 90%. For practical reasons, the compounds are grouped in four classes of activity as follows: IC50=A (< or =) 0.1 μM<B (< or =) 0.5 μM<C (< or =) 1 μM<D

T1 sequence (Q8NER1 whole entry): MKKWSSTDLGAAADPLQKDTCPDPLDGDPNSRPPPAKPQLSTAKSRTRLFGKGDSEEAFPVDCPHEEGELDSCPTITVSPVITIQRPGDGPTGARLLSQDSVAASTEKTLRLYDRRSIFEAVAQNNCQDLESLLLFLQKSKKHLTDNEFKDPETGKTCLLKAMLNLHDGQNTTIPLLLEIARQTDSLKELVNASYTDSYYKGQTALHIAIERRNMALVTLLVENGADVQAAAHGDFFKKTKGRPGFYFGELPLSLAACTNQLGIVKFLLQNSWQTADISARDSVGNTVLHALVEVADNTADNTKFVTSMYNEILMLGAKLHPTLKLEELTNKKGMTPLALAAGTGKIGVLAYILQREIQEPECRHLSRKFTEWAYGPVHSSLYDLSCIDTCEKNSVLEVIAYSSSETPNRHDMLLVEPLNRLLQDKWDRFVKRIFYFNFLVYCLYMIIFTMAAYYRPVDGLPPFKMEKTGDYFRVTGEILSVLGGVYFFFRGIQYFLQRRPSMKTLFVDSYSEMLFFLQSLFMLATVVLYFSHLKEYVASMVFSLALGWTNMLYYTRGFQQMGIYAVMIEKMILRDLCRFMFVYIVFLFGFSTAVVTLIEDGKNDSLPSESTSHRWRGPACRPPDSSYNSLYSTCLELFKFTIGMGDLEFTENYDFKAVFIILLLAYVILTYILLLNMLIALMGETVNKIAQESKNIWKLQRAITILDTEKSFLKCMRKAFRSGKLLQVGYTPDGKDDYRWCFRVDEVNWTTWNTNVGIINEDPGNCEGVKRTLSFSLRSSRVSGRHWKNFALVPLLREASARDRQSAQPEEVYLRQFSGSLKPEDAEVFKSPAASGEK

| SMILES | IC50 (human VR1) | melting point |
| --- | --- | --- |
| COc1ccc(OC)c(-c2ccc(CNC(=O)Nc3cccc4c3CC(O)CC4)cc2)c1 (stereo not drawn) [Example 1-36] | < 100 nM | 113 to 114 °C |
| Cc1cc(C)cc(-c2cccc(NC(=O)Nc3cccc4c3CC(O)CC4)c2)c1 (stereo not drawn) [Example 1-12] | < 100 nM | 221 °C |
| O=C(NCc1cccc(-c2ccc(OC(F)(F)F)cc2)c1)Nc1cccc2c1CC(O)CC2 (stereo not drawn) [Example 1-58] | < 100 nM | 188 to 189 °C |
| COc1ccc(-c2cccc(C(=O)N(C)c3cccc4c3CC(O)CC4)c2)cc1 (stereo not drawn) [Example 2-3] | 500 to 1000 nM | 150 to 151.2 °C |
| COc1ccc(-c2ccc(CNC(=O)Nc3cccc4c3CC(O)CC4)cc2)cc1 (stereo not drawn) [Example 1-31] | < 100 nM | 215 to 216 °C |
| COc1cccc(-c2cccc(NC(=O)Nc3cccc4c3CC(O)CC4)c2)c1 (stereo not drawn) [Example 1-13] | < 100 nM | 204 °C |
| O=C(NCc1ccc(-c2ccc(F)c(F)c2)cc1)Nc1cccc2c1CC(O)CC2 (stereo not drawn) [Example 1-41] | < 100 nM | 191 to 192 °C |
| O=C(Nc1cccc(-c2ccc(F)cc2)c1)Nc1cccc2c1CC(O)CC2 (stereo not drawn) [Example 1-16] | < 100 nM | 228 °C |
| O=C(NCc1ccc(-c2ccc(F)c(Cl)c2)cc1)Nc1cccc2c1CC(O)CC2 (stereo not drawn) [Example 1-42] | < 100 nM | 205 to 206 °C |
| O=C(NCc1cccc(-c2ccccc2F)c1)Nc1cccc2c1CC(O)CC2 (stereo not drawn) [Example 1-66] | < 100 nM | 197 to 198 °C |
| O=C(Nc1cccc(-c2cccc([N+](=O)[O-])c2)c1)Nc1cccc2c1CC(O)CC2 (stereo not drawn) [Example 1-28] | < 100 nM | 238 °C |
| O=C(NCc1cccc(-c2cc(C(F)(F)F)cc(C(F)(F)F)c2)c1)Nc1cccc2c1CC(O)CC2 (stereo not drawn) [Example 1-59] | < 100 nM | 208 to 209 °C |
